The data set can be described thus: physchem. The data set is classed as physicochemical. Particulars: for residual rate: after standing 3 weeks at 40°C, 75% relative humidity, HPLC.

This is an account of results in patent publication JP2011135835A, “ダンマラン系トリテルペン類含有組成物及び呈味改善方法” (Lion Corp, priority 2009, dated 2011).

By amount remaining is commonly meant the share of the starting amount still present when the sample was taken. The low end stands for more turnover, the high end for less turnover. Molecule `CC1(C)CCC[C@](C)([C@H]2CC[C@]3(C)[C@@H]2[C@H](O)C[C@@H]2[C@@]4(C)CC[C@H](O)C(C)(C)[C@@H]4[C@@H](O)C[C@]23C)O1` [PT, パナキサトリオール] gave an amount remaining at 504 h of 99.8%. The same measure, in the same setting: as for `CC1(C)CCC[C@](C)([C@H]2CC[C@]3(C)[C@@H]2[C@H](O)C[C@@H]2[C@@]4(C)CC[C@H](O)C(C)(C)[C@@H]4CC[C@]23C)O1` [PD, パナキサジオール], the figure is 99.7%. Consider `CC(C)=CCC[C@](C)(O)[C@H]1CC[C@]2(C)[C@@H]1[C@H](O)C[C@@H]1[C@@]3(C)CC[C@H](O)C(C)(C)[C@@H]3CC[C@]12C` [PPD, プロトパナキサジオール], for which the residual rate entry is “検出されなかった”. As to `CC(C)=CCC[C@](C)(O)[C@H]1CC[C@]2(C)[C@@H]1[C@H](O)C[C@@H]1[C@@]3(C)CC[C@H](O)C(C)(C)[C@@H]3[C@@H](O)C[C@]12C` [PPT, プロトパナキサトリオール], the residual rate result is reported as “検出されなかった”.
